The values below are quoted from earlier work in patent US20180051316A1, “DETECTION OF NUCLEIC ACID POLYMERASE CONFORMATIONAL CHANGES USING A NANOTUBE” (priority 2014, published 2018).

A word on the Ki: it is the equilibrium dissociation constant of an inhibitor or competing ligand from its target.

In this series the target is KF active site (Escherichia coli, UniProt P00582). The settings on record: inhibition of KF catalysis; cited from earlier work.
KF active site, sequence (P00582 324-928): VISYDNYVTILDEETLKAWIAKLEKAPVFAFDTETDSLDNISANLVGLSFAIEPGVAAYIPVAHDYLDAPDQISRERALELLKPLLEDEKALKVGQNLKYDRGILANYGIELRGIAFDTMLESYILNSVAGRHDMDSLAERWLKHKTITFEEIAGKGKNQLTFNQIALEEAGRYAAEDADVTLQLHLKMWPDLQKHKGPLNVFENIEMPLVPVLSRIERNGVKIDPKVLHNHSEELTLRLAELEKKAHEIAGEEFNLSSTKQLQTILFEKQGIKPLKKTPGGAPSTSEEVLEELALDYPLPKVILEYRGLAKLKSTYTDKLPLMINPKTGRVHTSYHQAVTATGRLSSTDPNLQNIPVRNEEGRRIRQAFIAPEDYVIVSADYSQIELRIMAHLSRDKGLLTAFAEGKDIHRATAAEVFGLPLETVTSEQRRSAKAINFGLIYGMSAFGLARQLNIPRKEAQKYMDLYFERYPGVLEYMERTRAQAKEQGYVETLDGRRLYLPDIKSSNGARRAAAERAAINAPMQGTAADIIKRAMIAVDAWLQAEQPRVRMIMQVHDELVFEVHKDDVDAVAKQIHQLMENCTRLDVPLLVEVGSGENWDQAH

On to `Cc1cn(C2CC(O)C(COP(O)(=S)OP(=O)(O)OP(=O)(O)O)O2)c(=O)[nH]c1=O` (single isomer, unassigned) [Rp diastereomer of α-thio-dTTP], for which the inhibitory constant (Ki) was ~30 µM.
